# In US20140335186A1, “METHODS AND COMPOSITIONS FOR ENHANCING CD4+ REGULATORY T CELLS” (Selecta Biosciences, Inc., priority 2013, published 2014):
# Test system: CD4+ OTII cells (CD25+Fox3p+ regulatory T cell phenotype)
# Experiment: Induction of CD4+ regulatory T cells: CD4+ OTII cells transferred into SJL mice, flow cytometry of popliteal lymph nodes
# Assay type: in vivo, mouse
# Settings: s.c. hind limbs on days 1 and 5, popliteal lymph nodes on day 10
# From the text: In order to monitor the determine the effect of immunosuppressant attached to synthetic nanocarriers on the development of CD4+ regulatory T cells, CD4+ T cells were purified from the transgenic mouse strain OTII using negative selection by magnetic-activated cell sorting (MACS). OTII mice express a T cell receptor specific for the chicken ovalbumin peptide OVA323-339. Following isolation, 4×10^6 CD4+ OTII cells were transferred into SJL mice congenically expressing the pan-leukocyte marker CD45.1 (Ptprc^a) (SJL-Prprc^a/BoyAiTac).
# On day 10, 5 days following the second administration of the indicated treatment, the animlas were sacrified and the popliteal lymph nodes that drain the site of injection were harvested to analyze developmental status and quantify the CD4+ OTII cells that had been transferred into the SJL mice by flow cytometry.
substance,measurement,value
"fOPII.323: free chicken ovalbumin peptide OVA323-339 (KISQAVHAAHAEINEAG; UniProt P01012 323-339, looked up, fragment)","proportion of transferred OTII cells with regulatory T cell phenotype (CD25+Fox3p+), FIG. 1",detectable but not statisitically significant increase
